Measurements: ChEMBL document CHEMBL1151339, “Antitumor agents from bohemic acid complex, III. The isolation of marcellomycin, musettamycin, rudolphomycin, mimimycin, collinemycin, alcindoromycin, and bohemamine” (J Nat Prod, 1980)
Values after ≈ are worked out from the molar mass of the structure shown.

What was measured:
[1] = system: Staphylococcus; experiment: Antibacterial activity against penicillin resistant Staphylococcus A-9606 by 2-fold tube dilution method; format: functional
[2] = system: L1210; experiment: Antitumor activity against mouse L1210 cells xenografted in BDF1 mouse assessed as change in tumor average weight at 1.6 mg/kg, ip; format: functional; conditions: route intraperitoneal
[3] = system: Escherichia coli; experiment: Antibacterial activity against Escherichia coli A15119 by 2-fold tube dilution method; format: functional
[4] = system: Candida tropicalis; experiment: Antifungal activity against Candida tropicalis A15051 by 2-fold tube dilution method; format: functional
[5] = system: Trichophyton mentagrophytes; experiment: Antifungal activity against Trichophyton mentagrophytes A-9870 by 2-fold tube dilution method; format: functional
[6] = system: Candida albicans; experiment: Antifungal activity against Candida albicans A-9540 by 2-fold tube dilution method; format: functional
[7] = system: Pichia kudriavzevii; experiment: Antifungal activity against Candida krusei A15052 by 2-fold tube dilution method; format: functional
[8] = system: Candida albicans; experiment: Antifungal activity against Candida albicans A15050 by 2-fold tube dilution method; format: functional
[9] = system: Proteus mirabilis; experiment: Antibacterial activity against Proteus mirabilis A-9900 by 2-fold tube dilution method; format: functional
[10] = system: L1210; experiment: Antitumor activity against mouse L1210 cells xenografted in BDF1 mouse assessed as change in tumor average weight at 51.2 mg/kg, ip; format: functional; conditions: route intraperitoneal
[11] = system: Serratia marcescens; experiment: Antibacterial activity against Serratia marcescens A20019 by 2-fold tube dilution method; format: functional
[12] = system: Mus musculus; experiment: Toxicity in BDF1 mouse xenografted with mouse L1210 cells assessed as survival at 12.8 mg/kg, ip after 5 days; format: organism-based; parameters: dose 12.8 mg/kg, route intraperitoneal; conditions: in vivo, 120 h
[13] = system: Mus musculus; experiment: Toxicity in BDF1 mouse xenografted with mouse L1210 cells assessed as survival at 6.4 mg/kg, ip after 5 days; format: organism-based; parameters: dose 6.4 mg/kg, route intraperitoneal; conditions: in vivo, 120 h
[14] = system: L1210; experiment: Antitumor activity against mouse L1210 cells xenografted in BDF1 mouse assessed as median survival time at 51.2 mg/kg, ip; format: functional; conditions: route intraperitoneal
[15] = system: Proteus vulgaris; experiment: Antibacterial activity against Proteus vulgaris A21559 by 2-fold tube dilution method; format: functional
[16] = system: Microsporum canis; experiment: Antifungal activity against Microsporum canis A-9872 by 2-fold tube dilution method; format: functional
[17] = system: L1210; experiment: Antitumor activity against mouse L1210 cells xenografted in BDF1 mouse assessed as change in tumor average weight at 3.2 mg/kg, ip; format: functional; conditions: route intraperitoneal
[18] = system: L1210; experiment: Antitumor activity against mouse L1210 cells xenografted in BDF1 mouse at 3.2 mg/kg, ip relative to control; format: functional; conditions: route intraperitoneal
[19] = system: Escherichia coli; experiment: Antibacterial activity against Escherichia coli A20341-1 by 2-fold tube dilution method; format: functional
[20] = system: Streptococcus pneumoniae; experiment: Antibacterial activity against Streptococcus pneumoniae A-9585 by 2-fold tube dilution method; format: functional
[21] = system: L1210; experiment: Antitumor activity against mouse L1210 cells xenografted in BDF1 mouse at 6.4 mg/kg, ip relative to control; format: functional; conditions: route intraperitoneal
[22] = system: L1210; experiment: Antitumor activity against mouse L1210 cells xenografted in BDF1 mouse assessed as change in tumor average weight at 12.8 mg/kg, ip; format: functional; conditions: route intraperitoneal
[23] = system: Enterobacter cloacae; experiment: Antibacterial activity against Enterobacter cloacae A-9659 by 2-fold tube dilution method; format: functional
[24] = system: Enterococcus faecalis; experiment: Antibacterial activity against Streptococcus faecalis A20688 by 2-fold tube dilution method; format: functional
[25] = system: L1210; experiment: Antitumor activity against mouse L1210 cells xenografted in BDF1 mouse assessed as change in tumor average weight at 6.4 mg/kg, ip; format: functional; conditions: route intraperitoneal
[26] = system: L1210; experiment: Antitumor activity against mouse L1210 cells xenografted in BDF1 mouse at 25.6 mg/kg, ip relative to control; format: functional; conditions: route intraperitoneal
[27] = system: L1210; experiment: Antitumor activity against mouse L1210 cells xenografted in BDF1 mouse at 51.2 mg/kg, ip relative to control; format: functional; conditions: route intraperitoneal
[28] = system: L1210; experiment: Antitumor activity against mouse L1210 cells xenografted in BDF1 mouse assessed as median survival time at 6.4 mg/kg, ip; format: functional; conditions: route intraperitoneal
[29] = system: Mus musculus; experiment: Toxicity in BDF1 mouse xenografted with mouse L1210 cells assessed as survival at 1.6 mg/kg, ip after 5 days; format: organism-based; parameters: dose 1.6 mg/kg, route intraperitoneal; conditions: in vivo, 120 h
[30] = system: L1210; experiment: Antitumor activity against mouse L1210 cells xenografted in BDF1 mouse assessed as change in tumor average weight at 25.6 mg/kg, ip; format: functional; conditions: route intraperitoneal
[31] = system: L1210; experiment: Antitumor activity against mouse L1210 cells xenografted in BDF1 mouse assessed as median survival time at 12.8 mg/kg, ip; format: functional; conditions: route intraperitoneal
[32] = system: Pseudomonas aeruginosa; experiment: Antibacterial activity against Pseudomonas aeruginosa A-9843A by 2-fold tube dilution method; format: functional
[33] = system: L1210; experiment: Antitumor activity against mouse L1210 cells xenografted in BDF1 mouse at 1.6 mg/kg, ip relative to control; format: functional; conditions: route intraperitoneal
[34] = system: Mus musculus; experiment: Toxicity in BDF1 mouse xenografted with mouse L1210 cells assessed as survival at 3.2 mg/kg, ip after 5 days; format: organism-based; parameters: dose 3.2 mg/kg, route intraperitoneal; conditions: in vivo, 120 h
[35] = system: Candida albicans; experiment: Antifungal activity against Candida albicans A15049 by 2-fold tube dilution method; format: functional
[36] = system: L1210; experiment: Antitumor activity against mouse L1210 cells xenografted in BDF1 mouse assessed as median survival time at 3.2 mg/kg, ip; format: functional; conditions: route intraperitoneal
[37] = system: L1210; experiment: Antitumor activity against mouse L1210 cells xenografted in BDF1 mouse assessed as median survival time at 1.6 mg/kg, ip; format: functional; conditions: route intraperitoneal
[38] = system: Streptococcus pyogenes; experiment: Antibacterial activity against Streptococcus pyogenes A-9604 by 2-fold tube dilution method; format: functional
[39] = system: L1210; experiment: Antitumor activity against mouse L1210 cells xenografted in BDF1 mouse at 12.8 mg/kg, ip relative to control; format: functional; conditions: route intraperitoneal
[40] = system: L1210; experiment: Antitumor activity against mouse L1210 cells xenografted in BDF1 mouse assessed as median survival time at 25.6 mg/kg, ip; format: functional; conditions: route intraperitoneal
[41] = system: Staphylococcus aureus; experiment: Antibacterial activity against Staphylococcus aureus A-9497 by 2-fold tube dilution method; format: functional
[42] = system: Klebsiella pneumoniae; experiment: Antibacterial activity against Klebsiella pneumoniae A15130 by 2-fold tube dilution method; format: functional
[43] = system: Mus musculus; experiment: Toxicity in BDF1 mouse xenografted with mouse L1210 cells assessed as survival at 51.2 mg/kg, ip after 5 days; format: organism-based; parameters: dose 51.2 mg/kg, route intraperitoneal; conditions: in vivo, 120 h
[44] = system: Mus musculus; experiment: Toxicity in BDF1 mouse xenografted with mouse L1210 cells assessed as survival at 25.6 mg/kg, ip after 5 days; format: organism-based; parameters: dose 25.6 mg/kg, route intraperitoneal; conditions: in vivo, 120 h

CC[C@@]1(O)C[C@H](O[C@H]2C[C@H](N(C)C)[C@H](O[C@H]3C[C@H](O)[C@H](O)[C@@H](C)O3)[C@@H](C)O2)c2c(cc3c(c2O)C(=O)c2c(O)ccc(O)c2C3=O)[C@H]1C(=O)OC [COLLINEMYCIN]
MIC [1]: 63 µg/mL (≈ 88 µM)
Activity [2]: -0.3 g
MIC [3]: > 125 µg/mL
MIC [4]: > 16 µg/mL
MIC [5]: > 16 µg/mL
MIC [6]: > 16 µg/mL
MIC [7]: > 16 µg/mL
MIC [8]: > 16 µg/mL
MIC [9]: > 125 µg/mL
Activity [10]: -2.5 g
MIC [11]: > 125 µg/mL
Activity [12]: Non-toxic
Activity [13]: Non-toxic
Activity [14]: 11 days
MIC [15]: > 125 µg/mL
MIC [16]: > 16 µg/mL
Activity [17]: 1.3 g
T/C [18]: 107%
MIC [19]: > 125 µg/mL
MIC [20]: 2 µg/mL (≈ 2.79 µM)
T/C [21]: 107%
Activity [22]: -2.3 g
MIC [23]: > 125 µg/mL
MIC [24]: 63 µg/mL (≈ 88 µM)
Activity [25]: -1.2 g
T/C [26]: 147%
T/C [27]: 147%
Activity [28]: 8 days
Activity [29]: Non-toxic
Activity [30]: -4.2 g
Activity [31]: 10 days
MIC [32]: > 125 µg/mL
T/C [33]: 107%
Activity [34]: Non-toxic
MIC [35]: > 16 µg/mL
Activity [36]: 8 days
Activity [37]: 8 days
MIC [38]: 8 µg/mL (≈ 11.2 µM)
T/C [39]: 133%
Activity [40]: 11 days
MIC [41]: 16 µg/mL (≈ 22.4 µM)
MIC [42]: > 125 µg/mL

CC[C@@]1(O)C[C@H](O[C@H]2C[C@H](NC)[C@H](O[C@H]3C[C@H](O)[C@H](O[C@@H]4C[C@H](O)[C@H](O)[C@H](C)O4)[C@H](C)O3)[C@@H](C)O2)c2c(cc3c(c2O)C(=O)c2c(O)ccc(O)c2C3=O)[C@H]1C(=O)OC [ALCINDOROMYCIN]
MIC [1]: 63 µg/mL (≈ 75.7 µM)
Activity [2]: 1.3 g
MIC [3]: > 125 µg/mL
MIC [4]: > 16 µg/mL
MIC [5]: > 16 µg/mL
MIC [6]: > 16 µg/mL
MIC [7]: > 16 µg/mL
MIC [8]: > 16 µg/mL
MIC [9]: > 125 µg/mL
Activity [10]: -2.7 g
MIC [11]: > 125 µg/mL
Activity [12]: Non-toxic
Activity [13]: Non-toxic
Activity [14]: 11 days
MIC [15]: > 125 µg/mL
MIC [16]: > 16 µg/mL
Activity [17]: 0.5 g
T/C [18]: 113%
MIC [19]: > 125 µg/mL
MIC [20]: 1 µg/mL (≈ 1.2 µM)
T/C [21]: 107%
Activity [22]: -0.8 g
MIC [23]: > 125 µg/mL
MIC [24]: 8 µg/mL (≈ 9.62 µM)
Activity [25]: 0.6 g
T/C [26]: 133%
T/C [27]: 147%
Activity [28]: 8 days
Activity [29]: Non-toxic
Activity [30]: -1.9 g
Activity [31]: 9.5 days
Activity [43]: Non-toxic
MIC [32]: > 125 µg/mL
T/C [33]: 93%
Activity [34]: Non-toxic
MIC [35]: > 16 µg/mL
Activity [36]: 8.5 days
Activity [37]: 7 days
MIC [38]: 2 µg/mL (≈ 2.4 µM)
Activity [44]: Non-toxic
T/C [39]: 128%
Activity [40]: 10 days
MIC [41]: 8 µg/mL (≈ 9.62 µM)
MIC [42]: > 125 µg/mL

CC[C@@]1(O)C[C@H](O[C@H]2C[C@H](N(C)C)[C@H](O[C@H]3C[C@H](O)[C@H](O[C@@H]4C[C@H](O)[C@H](O)[C@H](C)O4)[C@H](C)O3)[C@@H](C)O2)c2c(cc3c(c2O)C(=O)c2c(O)ccc(O)c2C3=O)[C@@H]1C(=O)OC [MIMIMYCIN]
MIC [1]: 63 µg/mL (≈ 74.5 µM)
Activity [2]: 0.5 g
MIC [3]: > 125 µg/mL
MIC [4]: > 16 µg/mL
MIC [5]: > 16 µg/mL
MIC [6]: > 16 µg/mL
MIC [7]: > 16 µg/mL
MIC [8]: > 16 µg/mL
MIC [9]: > 125 µg/mL
Activity [10]: -3.2 g
MIC [11]: > 125 µg/mL
Activity [12]: Non-toxic
Activity [13]: Non-toxic
Activity [14]: 10 days
MIC [15]: > 125 µg/mL
MIC [16]: > 16 µg/mL
Activity [17]: 1.3 g
T/C [18]: 107%
MIC [19]: > 125 µg/mL
MIC [20]: 1 µg/mL (≈ 1.18 µM)
T/C [21]: 120%
Activity [22]: -0.3 g
MIC [23]: > 125 µg/mL
MIC [24]: 4 µg/mL (≈ 4.73 µM)
Activity [25]: -1.3 g
T/C [26]: 107%
T/C [27]: 133%
Activity [28]: 9 days
Activity [29]: Non-toxic
Activity [30]: 0.1 g
Activity [31]: 8.5 days
MIC [32]: > 125 µg/mL
T/C [33]: 100%
Activity [34]: Non-toxic
MIC [35]: > 16 µg/mL
Activity [36]: 8 days
Activity [37]: 7.5 days
MIC [38]: 2 µg/mL (≈ 2.36 µM)
T/C [39]: 113%
Activity [40]: 8 days
MIC [41]: 8 µg/mL (≈ 9.46 µM)
MIC [42]: > 125 µg/mL
